Results reported in patent US11919901B2 (Syndax Pharmaceuticals, Inc., priority 2021, dated 2024).

Tested on: MV4-11 cells
Assay: Cell proliferation assay MV4;11 (CellTiter-Glo, 72 hours)
Format: cell-based
Details: Homo sapiens; MV4;11 leukemia cell line, 72 hours; read-out: MV4; 11 IC50
Summary of the method: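 MV4-11 cells (MLL1-AF4 fusion) exposed 72 h at 37 °C to 8 compound concentrations, final 0.632–2000 nM. Viability by CellTiter-Glo luminescence as % of vehicle RLU; % max inhibition = 100 − viability at top concentration.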

Row | SMILES | IC50 [nM]
1 | CC(C)N(CC(F)F)C(=O)c1cc(F)ccc1Oc1nncnc1N1CC2(CCN(C[C@@H]3CC[C@@H](NS(=O)(=O)C4CC4)CO3)CC2)C1 [Example 186, 2-((5-(7-(((2S,5R)-5-(Cyclopropanesulfonamido)tetrahydro-2H-pyran-2-yl)methyl)-2,7-diazaspiro[3.5]nonan-2-yl)-1,2,4-triazin-6-yl)oxy)-N-(2,2-difluoroethyl)-5-fluoro-N-isopropylbenzamide] | < 100
2 | CCNS(=O)(=O)N[C@@H]1CC[C@@H](CN2CCC3(CC2)CN(c2ncnnc2Oc2ccc(F)cc2C(=O)N(CC(F)F)C(C)C)C3)OC1 [Example 188, N-(2,2-Difluoroethyl)-2-((5-(7-(((2S,5R)-5-((N-ethylsulfamoyl)amino)tetrahydro-2H-pyran-2-yl)methyl)-2,7-diazaspiro[3.5]nonan-2-yl)-1,2,4-triazin-6-yl)oxy)-5-fluoro-N-isopropylbenzamide] | < 100
3 | CC(C)N(CC(F)F)C(=O)c1cc(F)ccc1Oc1nncnc1N1CC2(CCN(C[C@@H]3CC[C@@H](NS(=O)(=O)N4CCC4)CO3)CC2)C1 [Example 189, 2-((5-(7-(((2S,5R)-5-(Azetidine-1-sulfonamido)tetrahydro-2H-pyran-2-yl)methyl)-2,7-diazaspiro[3.5]nonan-2-yl)-1,2,4-triazin-6-yl)oxy)-N-(2,2-difluoroethyl)-5-fluoro-N-isopropylbenzamide] | < 100
4 | CCS(=O)(=O)N[C@@H]1CC[C@@H](CN2CCC3(CC2)CN(c2ncnnc2Oc2ccc(F)cc2C(=O)N(CC(F)(F)F)C(C)C)C3)OC1 [Example 190, 2-((5-(7-(((2S,5R)-5-(Ethylsulfonamido)tetrahydro-2H-pyran-2-yl)methyl)-2,7-diazaspiro[3.5]nonan-2-yl)-1,2,4-triazin-6-yl)oxy)-5-fluoro-N-isopropyl-N-(2,2,2-trifluoroethyl)benzamide] | < 100
5 | CC(C)N(CC(F)(F)F)C(=O)c1cc(F)ccc1Oc1nncnc1N1CC2(CCN(C[C@@H]3CC[C@@H](NS(=O)(=O)C4CC4)CO3)CC2)C1 [Example 191, 2-((5-(7-(((2S,5R)-5-(Cyclopropanesulfonamido)tetrahydro-2H-pyran-2-yl)methyl)-2,7-diazaspiro[3.5]nonan-2-yl)-1,2,4-triazin-6-yl)oxy)-5-fluoro-N-isopropyl-N-(2,2,2-trifluoroethyl)benzamide] | < 100
6 | CCS(=O)(=O)N[C@@H]1CC[C@@H](CN2CCC3(CC2)CN(c2ncnnc2Oc2ccc(F)cc2C(=O)N(C(C)C)C(C)C)C3)OC1 [Example 195, 2-((5-(7-(((2S,5R)-5-(Ethylsulfonamido)tetrahydro-2H-pyran-2-yl)methyl)-2,7-diazaspiro[3.5]nonan-2-yl)-1,2,4-triazin-6-yl)oxy)-5-fluoro-N,N-diisopropylbenzamide] | < 100
7 | CC(C)N(C(=O)c1cc(F)ccc1Oc1nncnc1N1CC2(CCN(C[C@@H]3CC[C@@H](NS(=O)(=O)C4CC4)CO3)CC2)C1)C(C)C [Example 196, 2-((5-(7-(((2S,5R)-5-(Cyclopropanesulfonamido)tetrahydro-2H-pyran-2-yl)methyl)-2,7-diazaspiro[3.5]nonan-2-yl)-1,2,4-triazin-6-yl)oxy)-5-fluoro-N,N-diisopropylbenzamide] | < 100
8 | CCNS(=O)(=O)N[C@@H]1CC[C@@H](CN2CCC3(CC2)CN(c2ncnnc2Oc2ccc(F)cc2C(=O)N(C(C)C)C(C)C)C3)OC1 [Example 198, 2-((5-(7-(((2S,5R)-5-((N-Ethylsulfamoyl)amino)tetrahydro-2H-pyran-2-yl)methyl)-2,7-diazaspiro[3.5]nonan-2-yl)-1,2,4-triazin-6-yl)oxy)-5-fluoro-N,N-diisopropylbenzamide] | < 100
9 | CC(C)N(C(=O)c1cc(F)ccc1Oc1nncnc1N1CC2(CCN(C[C@@H]3CC[C@@H](NS(=O)(=O)N4CCC4)CO3)CC2)C1)C(C)C [Example 199, 2-((5-(7-(((2S,5R)-5-(Azetidine-1-sulfonamido)tetrahydro-2H-pyran-2-yl)methyl)-2,7-diazaspiro[3.5]nonan-2-yl)-1,2,4-triazin-6-yl)oxy)-5-fluoro-N,N-diisopropylbenzamide] | < 100
